Assay results taken from patent US10472356B2, “Bicyclic ketone sulfonamide compounds” (AMGEN INC., priority 2015, dated 2019).

Columns and labels:
human Nav1.7 [1] = molecular target: T1, human Nav1.7 (Homo sapiens, UniProt Q15858); test: Nav 1.7 IWB In Vitro Assay (IonWorks Barracuda); type: cell-based; details: HEK293 cells stably transfected with human Nav 1.7; IonWorks Barracuda population patch-clamp; cells clamped to −20 mV for 4 minutes with compound; 26th pulse; read-out: hNav1.7 IWB IC50
T1 construct: expressed in transfected cells; host or cells: HEK293
Summary of the method: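 IC50 derived from concentration-response of percent block of the 26th-pulse peak inward current, compound vs none. Protocol: stable human Nav 1.7 HEK293 cells on automated population patch clamp, held at −110 mV, 5 Hz train of 150 ms steps to −20 mV, 4 min compound exposure depolarized at −20 mV, 3 s repolarization, train repeated.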

human Nav1.7 [2] = molecular target: T1, human Nav1.7; test: Nav 1.7 In Vitro PatchXpress (PX) Assay; type: cell-based; details: HEK 293 cells stably transfected with human Nav1.7; PatchXpress whole cell voltage clamp; partially inactivated state (holding potential yielding 20 to 50% inactivation); read-out: hNav1.7 PX IC50
Summary of the method: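 Percent inhibition of peak sodium current taken after 3 min exposure to one compound concentration, 3–5 cells each, with IC50 curve fits. Partially inactivated channels (20–50% inactivation at holding potential) in Nav1.7-HEK 293 cells, activated by 20 ms steps to −10 mV every 10 s.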

T1 sequence (Q15858 whole entry): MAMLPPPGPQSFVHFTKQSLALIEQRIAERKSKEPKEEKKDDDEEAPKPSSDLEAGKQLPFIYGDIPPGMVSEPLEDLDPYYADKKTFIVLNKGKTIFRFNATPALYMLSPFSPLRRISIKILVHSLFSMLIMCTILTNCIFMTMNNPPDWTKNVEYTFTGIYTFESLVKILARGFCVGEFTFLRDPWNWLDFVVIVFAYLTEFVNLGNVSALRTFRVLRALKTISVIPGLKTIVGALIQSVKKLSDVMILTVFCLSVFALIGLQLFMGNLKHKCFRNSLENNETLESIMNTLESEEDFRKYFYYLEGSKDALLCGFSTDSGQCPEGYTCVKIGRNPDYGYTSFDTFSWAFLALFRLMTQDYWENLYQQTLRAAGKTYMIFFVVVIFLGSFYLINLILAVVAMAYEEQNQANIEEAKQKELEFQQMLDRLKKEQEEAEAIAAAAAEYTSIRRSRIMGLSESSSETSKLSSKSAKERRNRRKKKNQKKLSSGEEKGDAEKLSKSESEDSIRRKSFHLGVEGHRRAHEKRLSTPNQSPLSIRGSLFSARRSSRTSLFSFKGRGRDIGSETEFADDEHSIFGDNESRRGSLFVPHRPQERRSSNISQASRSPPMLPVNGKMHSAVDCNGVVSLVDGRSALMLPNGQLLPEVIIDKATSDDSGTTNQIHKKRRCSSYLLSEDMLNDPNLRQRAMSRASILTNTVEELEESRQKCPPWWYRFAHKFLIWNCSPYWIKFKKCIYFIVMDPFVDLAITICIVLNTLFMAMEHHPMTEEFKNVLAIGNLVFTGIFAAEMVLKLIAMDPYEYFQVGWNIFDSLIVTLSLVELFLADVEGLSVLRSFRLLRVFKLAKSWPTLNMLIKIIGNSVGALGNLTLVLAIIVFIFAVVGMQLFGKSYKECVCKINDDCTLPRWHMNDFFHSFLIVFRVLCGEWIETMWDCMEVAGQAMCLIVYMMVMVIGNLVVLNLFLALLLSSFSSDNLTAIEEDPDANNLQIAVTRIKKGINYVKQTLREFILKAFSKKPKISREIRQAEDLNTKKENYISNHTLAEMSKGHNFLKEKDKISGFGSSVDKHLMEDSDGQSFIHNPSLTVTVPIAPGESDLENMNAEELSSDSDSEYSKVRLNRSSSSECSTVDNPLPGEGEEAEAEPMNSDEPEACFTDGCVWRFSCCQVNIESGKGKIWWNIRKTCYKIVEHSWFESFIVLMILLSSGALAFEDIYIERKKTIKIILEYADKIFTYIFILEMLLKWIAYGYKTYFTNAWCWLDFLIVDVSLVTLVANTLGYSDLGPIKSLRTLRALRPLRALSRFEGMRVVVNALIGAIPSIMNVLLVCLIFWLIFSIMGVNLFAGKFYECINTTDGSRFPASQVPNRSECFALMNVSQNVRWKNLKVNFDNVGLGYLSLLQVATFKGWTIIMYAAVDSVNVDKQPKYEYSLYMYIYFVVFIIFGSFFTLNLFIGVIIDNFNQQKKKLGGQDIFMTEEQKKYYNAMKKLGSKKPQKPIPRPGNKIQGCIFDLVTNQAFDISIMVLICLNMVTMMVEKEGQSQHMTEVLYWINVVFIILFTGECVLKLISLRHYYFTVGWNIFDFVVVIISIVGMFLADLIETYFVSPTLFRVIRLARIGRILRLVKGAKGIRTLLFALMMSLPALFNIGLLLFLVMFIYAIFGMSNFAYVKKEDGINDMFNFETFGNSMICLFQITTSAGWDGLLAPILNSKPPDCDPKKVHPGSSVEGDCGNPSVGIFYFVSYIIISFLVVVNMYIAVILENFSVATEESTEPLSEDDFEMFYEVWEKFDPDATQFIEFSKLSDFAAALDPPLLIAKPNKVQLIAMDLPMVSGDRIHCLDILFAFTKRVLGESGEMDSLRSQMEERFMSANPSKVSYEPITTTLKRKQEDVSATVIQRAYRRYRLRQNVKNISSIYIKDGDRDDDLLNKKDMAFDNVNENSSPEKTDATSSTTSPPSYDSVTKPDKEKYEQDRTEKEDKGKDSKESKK

SMILES | IC50 (human Nav1.7 [1]) [nM] | IC50 (human Nav1.7 [2]) [nM]
COc1cc(-c2ccc(Cl)c(C)c2)c(F)cc1-n1c2c(ccc1=O)CN(S(=O)(=O)Nc1ncccn1)CC2 (single isomer, unassigned) [Example 30-M, M-1-(4′-chloro-2-fluoro-5-methoxy-3′-methyl-4-biphenylyl)-2-oxo-N-2-pyrimidinyl-1,5,7,8-tetrahydro-1,6-naphthyridine-6(2H)-sulfonamide] | 3910 | 24900
COc1cc(-c2cc(F)cc(Cl)c2)c(F)cc1-n1c2c(ccc1=O)CN(S(=O)(=O)Nc1ncccn1)CC2 (single isomer, unassigned) [Example 31-P, P-1-(3′-chloro-2,5′-difluoro-5-methoxy-4-biphenylyl)-2-oxo-N-2-pyrimidinyl-1,5,7,8-tetrahydro-1,6-naphthyridine-6(2H)-sulfonamide] | 36.9 | 205
COc1cc(-c2cc(F)cc(F)c2)c(F)cc1-n1c2c(ccc1=O)CN(S(=O)(=O)Nc1ncon1)CC2 (single isomer, unassigned) [Example 17-M, M-N-1,2,4-oxadiazol-3-yl-2-oxo-1-(2,3′,5′-trifluoro-5-methoxy-4-biphenylyl)-1,5,7,8-tetrahydro-1,6-naphthyridine-6(2H)-sulfonamide] | 34.3 | 292
COc1cc(-c2ccc(F)c(F)c2)c(F)cc1-n1c2c(ccc1=O)CN(S(=O)(=O)Nc1ncccn1)CC2 (racemic) [Example 28-(Rac), (Rac)-2-oxo-N-2-pyrimidinyl-1-(2,3′,4′-trifluoro-5-methoxy-4-biphenylyl)-1,5,7,8-tetrahydro-1,6-naphthyridine-6(2H)-sulfonamide] | 199 | 1680
COc1cc(-c2ccc(Cl)c(C)c2)c(F)cc1-n1c2c(ccc1=O)CN(S(=O)(=O)Nc1cc(C)ncn1)CC2 (racemic) [Example 40, (Rac)-1-(4′-chloro-2-fluoro-5-methoxy-3′-methyl-4-biphenylyl)-N-(6-methyl-4-pyrimidinyl)-2-oxo-1,5,7,8-tetrahydro-1,6-naphthyridine-6(2H)-sulfonamide] | 42.3 | 204
COc1cc(-c2cccc(C(F)(F)F)c2)c(Cl)cc1-n1c2c(ccc1=O)CN(S(=O)(=O)Nc1cccnn1)CC2 (single isomer, unassigned) [Example 91-M, M-1-(2-chloro-5-methoxy-3′-(trifluoromethyl)-[1,1′-biphenyl]-4-yl)-2-oxo-N-(pyridazin-3-yl)-1,2,7,8-tetrahydro-1,6-naphthyridine-6(5H)-sulfonamide] | 154 | 681
COc1cc(-c2cc(Cl)ccc2C)c(F)cc1-n1c2c(ccc1=O)CN(S(=O)(=O)Nc1ccon1)CC2 (single isomer, unassigned) [Example 9-M, M-1-(5′-chloro-2-fluoro-5-methoxy-2′-methyl-4-biphenylyl)-N-3-isoxazolyl-2-oxo-1,5,7,8-tetrahydro-1,6-naphthyridine-6(2H)-sulfonamide] | 55 | 772
COc1cc(-c2ccc(C(F)(F)F)cc2)c(F)cc1-n1c2c(ccc1=O)CN(S(=O)(=O)Nc1cccnn1)CC2 [Example 67, P-1-(2-fluoro-5-methoxy-4′-(trifluoromethyl)-[1,1′-biphenyl]-4-yl)-2-oxo-N-(pyridazin-3-yl)-1,2,7,8-tetrahydro-1,6-naphthyridine-6(5H)-sulfonamide] | 20.5 | 75.8
COc1cc(-c2cccc(C(F)(F)F)c2)c(Cl)cc1-n1c2c(ccc1=O)CN(S(=O)(=O)Nc1cccnn1)CC2 (racemic) [Example 91-(Rac), (Rac)-1-(2-chloro-5-methoxy-3′-(trifluoromethyl)-[1,1′-biphenyl]-4-yl)-2-oxo-N-(pyridazin-3-yl)-1,2,7,8-tetrahydro-1,6-naphthyridine-6(5H)-sulfonamide] | 11.2 | 29.9

Second part, the molecule after the results:

IC50 (human Nav1.7 [1]) [nM] | IC50 (human Nav1.7 [2]) [nM] | SMILES
567 | 3560 | COc1cc(-c2cc(F)cc(Cl)c2)c(F)cc1-n1c2c(ccc1=O)CN(S(=O)(=O)Nc1ccon1)CC2 (single isomer, unassigned) [Example 18-M, M-1-(3′-chloro-2,5′-difluoro-5-methoxy-4-biphenylyl)-N-3-isoxazolyl-2-oxo-1,5,7,8-tetrahydro-1,6-naphthyridine-6(2H)-sulfonamide]
21.8 | 116 | COc1cc(-c2ccc(F)c(C)c2)c(C)cc1-n1c2c(ccc1=O)CN(S(=O)(=O)Nc1cccnn1)CC2 (single isomer, unassigned) [Example 93-P, P-1-(4′-fluoro-5-methoxy-2,3′-dimethyl-[1,1′-biphenyl]-4-yl)-2-oxo-N-(pyridazin-3-yl)-1,2,7,8-tetrahydro-1,6-naphthyridine-6(5H)-sulfonamide]
16.9 | 22.8 | COc1cc(-c2cc(C)cc(Cl)c2)c(F)cc1-n1c2c(ccc1=O)CN(S(=O)(=O)Nc1cccnn1)CC2 [Example 69, P-1-(3′-chloro-2-fluoro-5-methoxy-5′-methyl-[1,1′-biphenyl]-4-yl)-2-oxo-N-(pyridazin-3-yl)-1,2,7,8-tetrahydro-1,6-naphthyridine-6(5H)-sulfonamide]
24.1 | 195 | COc1cc(-c2ccc(Cl)cc2)c(F)cc1-n1c2c(ccc1=O)CN(S(=O)(=O)Nc1cccnn1)CC2 [Example 61, P-1-(4′-chloro-2-fluoro-5-methoxy-[1,1′-biphenyl]-4-yl)-2-oxo-N-(pyridazin-3-yl)-1,2,7,8-tetrahydro-1,6-naphthyridine-6(5H)-sulfonamide]
2730 | 5020 | COc1cc(-c2cc(F)cc(Cl)c2)c(F)cc1-n1c2c(ccc1=O)CN(S(=O)(=O)Nc1ncccn1)CC2 (single isomer, unassigned) [Example 31-M, M-1-(3′-chloro-2,5′-difluoro-5-methoxy-4-biphenylyl)-2-oxo-N-2-pyrimidinyl-1,5,7,8-tetrahydro-1,6-naphthyridine-6(2H)-sulfonamide]
8.6 | 75.8 | COc1cc(-c2cccc(Cl)c2)c(F)cc1-n1c2c(ccc1=O)CN(S(=O)(=O)Nc1cccnn1)CC2 [Example 62, P-1-(3′-chloro-2-fluoro-5-methoxy-[1,1′-biphenyl]-4-yl)-2-oxo-N-(pyridazin-3-yl)-1,2,7,8-tetrahydro-1,6-naphthyridine-6(5H)-sulfonamide]
1.8 | 33 | COc1cc(-c2cc(F)cc(C(F)(F)F)c2)c(F)cc1-n1c2c(ccc1=O)CN(S(=O)(=O)Nc1cccnn1)CC2 [Example 41, P-1-(2,3′-difluoro-5-methoxy-5′-(trifluoromethyl)-4-biphenylyl)-2-oxo-N-3-pyridazinyl-1,5,7,8-tetrahydro-1,6-naphthyridine-6(2H)-sulfonamide]
31.7 | 350 | COc1cc(-c2cc(F)cc(Cl)c2)ccc1-n1c2c(ccc1=O)CN(S(=O)(=O)Nc1cccnn1)CC2 (racemic) [8-(Rac), (Rac)-1-(3′-chloro-5′-fluoro-3-methoxy-4-biphenylyl)-2-oxo-N-3-pyridazinyl-1,5,7,8-tetrahydro-1,6-naphthyridine-6(2H)-sulfonamide]
282 | 3010 | COc1cc(-c2ccc(F)c(C)c2)c(Cl)cc1-n1c2c(ccc1=O)CN(S(=O)(=O)Nc1cccnn1)CC2 (single isomer, unassigned) [Example 92-M, M-1-(2-chloro-4′-fluoro-5-methoxy-3′-methyl-[1,1′-biphenyl]-4-yl)-2-oxo-N-(pyridazin-3-yl)-1,2,7,8-tetrahydro-1,6-naphthyridine-6(5H)-sulfonamide]
